Data on 11 compounds can be found in patent US12122763B2, “Substituted piperidines for androgen receptor degradation” (UBIX THERAPEUTICS, INC., priority 2020, dated 2024).

The assay has as its target T1, Androgen Receptor (AR) protein (Homo sapiens, UniProt P10275, T878A).
T1 construct: endogenous in cells; host or cells: LNCaP
The assay can be described thus: Androgen Receptor (AR) protein degradation assay in LNCaP cells, western blotting. In kind it is cell-based. The note with it: 20 h; for inhibition at 0.01 µM: 0.01 μM compound; for inhibition at 0.1 µM: 0.1 μM compound; for inhibition at 1 µM: 1 μM compound; for inhibition at 10 µM: 10 μM compound. In a few lines: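 AR protein level was detected by western blot (ECL) against GAPDH or β-actin controls, with 8 μg lysate protein loaded per lane after BCA quantification. Lysates came from LNCaP cells exposed to test compound for 20 h, following 3 days of growth in RPMI/10% FBS.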

T1 sequence (P10275 whole entry T878A): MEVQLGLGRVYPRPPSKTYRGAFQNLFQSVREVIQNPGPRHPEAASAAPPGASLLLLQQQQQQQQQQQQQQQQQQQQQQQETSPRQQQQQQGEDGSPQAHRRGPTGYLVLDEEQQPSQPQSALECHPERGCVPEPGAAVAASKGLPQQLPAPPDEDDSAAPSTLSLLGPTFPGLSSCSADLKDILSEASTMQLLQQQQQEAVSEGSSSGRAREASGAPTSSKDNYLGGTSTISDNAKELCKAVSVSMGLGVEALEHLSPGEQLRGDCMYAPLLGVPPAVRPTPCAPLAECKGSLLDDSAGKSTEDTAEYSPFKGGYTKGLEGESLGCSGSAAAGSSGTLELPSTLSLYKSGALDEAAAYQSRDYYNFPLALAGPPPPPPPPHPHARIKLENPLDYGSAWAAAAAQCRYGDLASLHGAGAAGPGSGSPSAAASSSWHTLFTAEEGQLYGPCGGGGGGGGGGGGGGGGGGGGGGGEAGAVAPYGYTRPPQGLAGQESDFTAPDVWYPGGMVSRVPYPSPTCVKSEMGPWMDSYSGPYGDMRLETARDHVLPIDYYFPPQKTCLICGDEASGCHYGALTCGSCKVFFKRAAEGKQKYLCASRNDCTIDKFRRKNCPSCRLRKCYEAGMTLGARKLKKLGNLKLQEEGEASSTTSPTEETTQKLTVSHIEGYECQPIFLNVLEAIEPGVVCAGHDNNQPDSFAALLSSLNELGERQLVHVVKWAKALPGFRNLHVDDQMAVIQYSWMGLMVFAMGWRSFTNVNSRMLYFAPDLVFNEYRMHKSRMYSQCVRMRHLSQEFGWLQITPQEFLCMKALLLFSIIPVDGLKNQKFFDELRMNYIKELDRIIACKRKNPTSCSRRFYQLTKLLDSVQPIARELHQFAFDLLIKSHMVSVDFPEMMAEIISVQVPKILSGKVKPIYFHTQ
T1 sequence (Q96SW2 whole entry partner): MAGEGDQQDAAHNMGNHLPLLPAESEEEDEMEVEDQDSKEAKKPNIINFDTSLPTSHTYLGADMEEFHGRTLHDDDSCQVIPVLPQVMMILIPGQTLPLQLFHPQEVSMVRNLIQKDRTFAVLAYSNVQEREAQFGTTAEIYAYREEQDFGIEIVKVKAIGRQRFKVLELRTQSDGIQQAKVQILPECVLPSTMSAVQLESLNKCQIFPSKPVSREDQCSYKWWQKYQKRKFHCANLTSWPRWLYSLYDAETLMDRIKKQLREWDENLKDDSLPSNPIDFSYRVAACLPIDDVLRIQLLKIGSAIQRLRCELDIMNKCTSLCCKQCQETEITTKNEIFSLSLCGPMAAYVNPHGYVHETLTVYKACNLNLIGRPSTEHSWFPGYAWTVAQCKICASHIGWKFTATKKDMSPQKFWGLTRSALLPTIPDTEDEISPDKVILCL

Usually inhibition stands for the relative decrease from the control value, in per cent. Higher therefore signals strong suppression. Compound `C[C@H]1CN(CC2CCN(c3ccc4c(n3)CN(C3CCC(=O)NC3=O)C4=O)CC2)CCN1CC1CCN(c2ccc(NC(=O)C3CCN(c4ccc(C#N)c(C(F)(F)F)c4)CC3)nc2)CC1` (stereo partly drawn) [Example 46, 1-(4-cyano-3-(trifluoromethyl)phenyl)-N-(5-(4-(((2S)-4-((1-(6-(2,6-dioxopiperidin-3-yl)-5-oxo-6,7-dihydro-5H-pyrrolo[3,4-b]pyridin-2-yl)piperidin-4-yl)methyl)-2-methylpiperazin-1-yl)methyl)piperidin-1-yl)pyridin-2-yl)piperidine-4-carboxamide] displayed an inhibition at 0.01 µM of 70%, an inhibition at 0.1 µM of 97% and an inhibition at 1 µM of 91%.
Take `N#Cc1ccc(N2CCC(C(=O)Nc3cnc(N4CCC(CN5CC6(CCN(c7ccc8c(c7)C(=O)N(C7CCC(=O)NC7=O)C8=O)CC6)C5)CC4)cn3)CC2)cc1C(F)(F)F` (stereo not drawn) [Example 155, 1-(4-cyano-3-(trifluoromethyl)phenyl)-N-(5-(4-((7-(2-(2,6-dioxopiperidin-3-yl)-1,3-dioxoisoindolin-5-yl)-2,7-diazaspiro[3.5]nonan-2-yl)methyl)piperidin-1-yl)pyrazin-2-yl)piperidine-4-carboxamide]: 0.01 µM produced 38% inhibition, the inhibition at 0.1 µM was 89% and the inhibition at 1 µM was found to be 98%.
In turn, `N#Cc1ccc(N2CCC(C(=O)Nc3ccc(N4CCC(CN5CC6(CCN(c7ccc8c(c7)CN(C7CCC(=O)NC7=O)C8=O)CC6)C5)CC4)cn3)CC2)cc1C(F)(F)F` (stereo not drawn) [Example 135, 1-(4-cyano-3-(trifluoromethyl)phenyl)-N-(5-(4-((7-(2-(2,6-dioxopiperidin-3-yl)-1-oxoisoindolin-5-yl)-2,7-diazaspiro[3.5]nonan-2-yl)methyl)piperidin-1-yl)pyridin-2-yl)piperidine-4-carboxamide] gave an inhibition at 0.01 µM of 35%, an inhibition at 0.1 µM of 94% and an inhibition at 1 µM of 85%.
Compound `N#Cc1ccc(N2CCC(C(=O)Nc3ccc(N4CCC(CN5CCN(CC6CCN(c7cc8c(cc7F)C(=O)N(C7CCC(=O)NC7=O)C8=O)CC6)CC5)CC4)cn3)CC2)cc1C(F)(F)F` (stereo not drawn) [Example 18, 1-(4-cyano-3-(trifluoromethyl)phenyl)-N-(5-(4-((4-((1-(2-(2,6-dioxopiperidin-3-yl)-6-fluoro-1,3-dioxoisoindolin-5-yl)piperidin-4-yl)methyl)piperazin-1-yl)methyl)piperidin-1-yl)pyridin-2-yl)piperidine-4-carboxamide] yielded an inhibition at 0.01 µM of 36%, an inhibition at 0.1 µM of 93% and an inhibition at 1 µM of 95%.
For `C[C@H]1CN(CC2CCN(c3ccc(NC(=O)C4CCN(c5ccc(C#N)c(C(F)(F)F)c5)CC4)nc3)CC2)CCN1CC1CCN(c2ccc3c(n2)CN(C2CCC(=O)NC2=O)C3=O)CC1` (stereo partly drawn) [Example 48, 1-(4-cyano-3-(trifluoromethyl)phenyl)-N-(5-(4-(((3S)-4-((1-(6-(2,6-dioxopiperidin-3-yl)-5-oxo-6,7-dihydro-5H-pyrrolo[3,4-b]pyridin-2-yl)piperidin-4-yl)methyl)-3-methylpiperazin-1-yl)methyl)piperidin-1-yl)pyridin-2-yl)piperidine-4-carboxamide], testing at 0.01 µM gave an inhibition of 59%, testing at 0.1 µM gave an inhibition of 94% and the inhibition at 1 µM worked out at 87%.
Take `N#Cc1ccc(N2CCC(C(=O)Nc3ccc(C#CCN4CC5(CCN(c6ccc7c(c6)C(=O)N(C6CCC(=O)NC6=O)C7=O)CC5)C4)cn3)CC2)cc1C(F)(F)F` (stereo not drawn) [Example 134, 1-(4-cyano-3-(trifluoromethyl)phenyl)-N-(5-(3-(7-(2-(2,6-dioxopiperidin-3-yl)-1,3-dioxoisoindolin-5-yl)-2,7-diazaspiro[3.5]nonan-2-yl)prop-1-yn-1-yl)pyridin-2-yl)piperidine-4-carboxamide]: the inhibition at 0.01 µM stood at 56%, the inhibition at 0.1 µM stood at 87%, 1 µM produced 96% inhibition and at 10 µM the inhibition was 92%.
With `N#Cc1ccc(N2CCC(C(=O)Nc3ccc(N4CCC(CN5CCN(C6CCN(c7ccc8c(c7)C(=O)N(C7CCC(=O)NC7=O)C8=O)CC6)CC5)CC4)cn3)CC2)cc1Cl` (stereo not drawn) [Example 71, 1-(3-chloro-4-cyanophenyl)-N-(5-(4-((4-(1-(2-(2,6-dioxopiperidin-3-yl)-1,3-dioxoisoindolin-5-yl)piperidin-4-yl)piperazin-1-yl)methyl)piperidin-1-yl)pyridin-2-yl)piperidine-4-carboxamide], the inhibition at 0.01 µM turned out to be 75%, the inhibition at 0.1 µM turned out to be 97%, the inhibition at 1 µM is 98% and the inhibition at 10 µM is 98%.
`N#Cc1ccc(N2CCC(C(=O)Nc3ccc(N4CCC(CN5CCC6(CC5)CN(c5ccc7c(c5)C(=O)N(C5CCC(=O)NC5=O)C7=O)C6)CC4)cn3)CC2)cc1C(F)(F)F` (stereo not drawn) [Example 63, 1-(4-cyano-3-(trifluoromethyl)phenyl)-N-(5-(4-((2-(2-(2,6-dioxopiperidin-3-yl)-1,3-dioxoisoindolin-5-yl)-2,7-diazaspiro[3.5]nonan-7-yl)methyl)piperidin-1-yl)pyridin-2-yl)piperidine-4-carboxamide] came in with an inhibition at 0.01 µM of 45%, an inhibition at 0.1 µM of 94%, an inhibition at 1 µM of 98.5% and an inhibition at 10 µM of 94.5%.
As to `N#Cc1ccc(N2CCC(C(=O)Nc3ccc(N4CC(CN5CCC(CN6CCN(c7cc8c(cc7F)C(=O)N(C7CCC(=O)NC7=O)C8=O)CC6)CC5)C4)cn3)CC2)cc1C(F)(F)F` (stereo not drawn) [Example 191, 1-(4-cyano-3-(trifluoromethyl)phenyl)-N-(5-(3-((4-((4-(2-(2,6-dioxopiperidin-3-yl)-6-fluoro-1,3-dioxoisoindolin-5-yl)piperazin-1-yl)methyl)piperidin-1-yl)methyl)azetidin-1-yl)pyridin-2-yl)piperidine-4-carboxamide], the inhibition at 0.01 µM was found to be 3% and the inhibition at 0.1 µM is 84%.
`N#Cc1ccc(N2CCC(C(=O)Nc3ccc(N4CCC(CN5CCN(CC6CCN(c7ccc8c(c7)C(=O)N(C7CCC(=O)NC7=O)C8=O)CC6)CC5)CC4)cn3)CC2)cc1Cl` (stereo not drawn) [Example 7, 1-(3-chloro-4-cyanophenyl)-N-(5-(4-((4-((1-(2-(2,6-dioxopiperidin-3-yl)-1,3-dioxoisoindolin-5-yl)piperidin-4-yl)methyl)piperazin-1-yl)methyl)piperidin-1-yl)pyridin-2-yl)piperidine-4-carboxamide] yielded an inhibition at 0.01 µM of 87%, an inhibition at 0.1 µM of 99%, an inhibition at 1 µM of 99% and an inhibition at 10 µM of 94%.
For `C[C@@H]1CN(CC2CCN(c3ccc(NC(=O)C4CCN(c5ccc(C#N)c(C(F)(F)F)c5)CC4)nc3)CC2)CCN1CC1CCN(c2ccc3c(n2)CN(C2CCC(=O)NC2=O)C3=O)CC1` (stereo partly drawn) [Example 47, 1-(4-cyano-3-(trifluoromethyl)phenyl)-N-(5-(4-(((3R)-4-((1-(6-(2,6-dioxopiperidin-3-yl)-5-oxo-6,7-dihydro-5H-pyrrolo[3,4-b]pyridin-2-yl)piperidin-4-yl)methyl)-3-methylpiperazin-1-yl)methyl)piperidin-1-yl)pyridin-2-yl)piperidine-4-carboxamide], the inhibition at 0.01 µM amounted to 65%, at 0.1 µM the inhibition was 95% and testing at 1 µM gave an inhibition of 89%.
